System: SJS male adult insects
Assay: SJS attraction test (white adhesive trap, orchard)
Type: in vivo, Quadraspidiotus perniciosus (San Jose scale)
Details: conclusion from trap captures
From the text: <Evaluation of Sex Pheromone Activity (SJS Attraction Test)> A white adhesive trap was used for evaluation of the sex pheromone activity. […] An adhesive material was applied over the bottom plate, and the attractant, which is shown as “A” in FIG. 1, was placed directly on the adhesive surface. In other words, it is configured to capture only insects that have approached the attractant, whereby keeping unintentional admission of insects as low as possible. In a period of from Jun. 30 to Oct. 2, 2015, the traps, each having one of the attractants, were placed in an orchard where SJS had inhabited. The number of male adult insects captured in each trap was measured for every 7 days. At every measurement, the installation places of the respective traps were changed by rotation of 13 places in total, in order to minimize the effects of installation environment on the number of capture.

Compound: C=C(C)CCCC(C)CCOC(=O)CC (stereo not shown) [3,7-dimethyl-7-octenyl propionate]
- sex pheromone activity on the SJS: has a sex pheromone activity on the SJS
